According to paper PMC3254090 (ACS chemical neuroscience, 2011):
Like-named read-outs stand apart in the source and are kept apart here.

Experiments:
[1] = test system: histamine subtype 3 (H3) receptor; settings: cited from earlier work
[2] = cited from earlier work
SERT = SERT (Homo sapiens, UniProt P31645); experiment: SERT activity in receptor profiling; type: binding
[3] = target: T1, norepinephrine transporter, NET (Homo sapiens, UniProt P23975); experiment: radioligand binding assay, NET
T1 sequence (P23975 whole entry): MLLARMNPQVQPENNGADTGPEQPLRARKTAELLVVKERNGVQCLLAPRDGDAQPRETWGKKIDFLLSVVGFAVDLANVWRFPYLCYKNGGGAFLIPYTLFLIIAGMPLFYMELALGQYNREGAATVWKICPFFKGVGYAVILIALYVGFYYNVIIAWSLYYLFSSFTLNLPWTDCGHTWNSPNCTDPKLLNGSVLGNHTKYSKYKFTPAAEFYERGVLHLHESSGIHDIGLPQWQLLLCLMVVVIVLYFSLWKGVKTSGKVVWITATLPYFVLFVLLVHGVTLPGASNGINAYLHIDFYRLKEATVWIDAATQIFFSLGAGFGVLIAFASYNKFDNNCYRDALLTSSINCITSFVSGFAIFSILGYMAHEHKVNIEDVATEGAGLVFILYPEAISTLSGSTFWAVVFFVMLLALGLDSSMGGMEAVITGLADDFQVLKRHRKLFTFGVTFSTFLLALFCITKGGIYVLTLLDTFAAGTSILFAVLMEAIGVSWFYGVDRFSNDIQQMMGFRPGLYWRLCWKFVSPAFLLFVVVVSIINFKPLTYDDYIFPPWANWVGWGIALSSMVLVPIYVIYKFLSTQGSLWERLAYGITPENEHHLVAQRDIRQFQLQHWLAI

[4] = target: T1, norepinephrine transporter, NET; experiment: functional assay, NET; type: biochemical
[5] = test system: 68 GPCRs, ion channels and transporters; experiment: external panel of radioligand binding assays
[6] = target: T2, Dopamine Transporter, DAT (Homo sapiens, UniProt Q01959); experiment: functional assay, DAT; type: biochemical
T2 sequence (Q01959 whole entry): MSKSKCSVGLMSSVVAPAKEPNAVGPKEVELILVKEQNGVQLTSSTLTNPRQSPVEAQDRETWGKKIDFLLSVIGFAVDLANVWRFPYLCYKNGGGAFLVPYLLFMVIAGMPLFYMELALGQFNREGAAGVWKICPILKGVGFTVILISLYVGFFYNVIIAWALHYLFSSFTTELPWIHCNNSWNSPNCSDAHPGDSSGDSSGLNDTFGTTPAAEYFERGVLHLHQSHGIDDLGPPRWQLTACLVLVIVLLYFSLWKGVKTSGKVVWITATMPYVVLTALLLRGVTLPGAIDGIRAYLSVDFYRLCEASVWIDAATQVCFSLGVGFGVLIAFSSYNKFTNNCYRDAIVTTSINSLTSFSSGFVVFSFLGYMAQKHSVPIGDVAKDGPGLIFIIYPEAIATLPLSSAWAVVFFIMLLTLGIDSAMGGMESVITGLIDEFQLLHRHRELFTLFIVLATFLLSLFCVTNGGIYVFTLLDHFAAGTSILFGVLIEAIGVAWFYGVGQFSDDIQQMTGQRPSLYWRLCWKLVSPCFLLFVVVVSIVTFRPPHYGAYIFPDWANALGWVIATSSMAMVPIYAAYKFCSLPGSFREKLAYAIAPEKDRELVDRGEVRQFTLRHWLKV

[7] = standard cytotoxicity assay
histamine H3 [8] = target: T3, histamine H3 (Homo sapiens, UniProt Q9Y5N1); experiment: radioligand binding assay, H3
T3 sequence (Q9Y5N1 whole entry): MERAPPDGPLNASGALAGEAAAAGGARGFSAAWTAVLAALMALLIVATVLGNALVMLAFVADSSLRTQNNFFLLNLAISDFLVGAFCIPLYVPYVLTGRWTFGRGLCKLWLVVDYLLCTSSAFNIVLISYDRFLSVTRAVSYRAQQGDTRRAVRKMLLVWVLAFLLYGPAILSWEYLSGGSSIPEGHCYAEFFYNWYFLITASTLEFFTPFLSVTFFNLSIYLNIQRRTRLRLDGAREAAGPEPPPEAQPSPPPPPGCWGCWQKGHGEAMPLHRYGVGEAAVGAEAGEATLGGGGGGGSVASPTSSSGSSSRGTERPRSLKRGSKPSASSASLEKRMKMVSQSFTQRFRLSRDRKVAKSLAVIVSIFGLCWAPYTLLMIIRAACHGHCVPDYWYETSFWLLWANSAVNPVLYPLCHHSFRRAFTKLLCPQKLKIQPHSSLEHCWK

[9] = target: T2, Dopamine Transporter, DAT; experiment: radioligand binding assay, DAT
[10] = cited from earlier work; remark: listed apart in the source
HCT116 cells = experiment: HCT116 colon carcinoma cell viability assay; type: cell-based; settings: for effect on HCT116 cell viability: after 48 hours
histamine H3 [11] = target: T3, histamine H3; experiment: functional assay, H3; type: biochemical
SW620 cells [12] = experiment: cell viability, SW620; type: cell-based
H520 cells [13] = experiment: cell viability, H520; type: cell-based
H520 cells [14] = experiment: BrdU proliferation assay, H520; type: cell-based; settings: 10 μM, 48 hours
SW620 cells [15] = experiment: BrdU proliferation assay, SW620; type: cell-based; settings: 10 μM, 48 hours

Sequence of SERT (P31645 whole entry, species assumed): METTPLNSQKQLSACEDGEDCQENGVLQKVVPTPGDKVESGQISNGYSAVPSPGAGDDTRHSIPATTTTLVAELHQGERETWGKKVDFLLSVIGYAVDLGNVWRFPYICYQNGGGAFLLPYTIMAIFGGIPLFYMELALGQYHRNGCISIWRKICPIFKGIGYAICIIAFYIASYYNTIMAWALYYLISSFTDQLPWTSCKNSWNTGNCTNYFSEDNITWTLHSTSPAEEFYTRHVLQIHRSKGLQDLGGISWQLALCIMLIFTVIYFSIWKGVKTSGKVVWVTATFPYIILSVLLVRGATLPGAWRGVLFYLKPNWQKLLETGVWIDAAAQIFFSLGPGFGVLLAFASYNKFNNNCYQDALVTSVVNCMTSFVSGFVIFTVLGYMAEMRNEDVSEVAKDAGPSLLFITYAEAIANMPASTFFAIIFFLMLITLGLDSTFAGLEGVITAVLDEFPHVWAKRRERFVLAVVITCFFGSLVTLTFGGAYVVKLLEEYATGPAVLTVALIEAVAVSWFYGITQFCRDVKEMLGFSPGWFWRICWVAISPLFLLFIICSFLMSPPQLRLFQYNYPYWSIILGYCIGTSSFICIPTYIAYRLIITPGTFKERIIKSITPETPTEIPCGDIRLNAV

CN(C)CCCOc1c(Br)cc(CCN(C)C)cc1Br [compound 1, aplysamine]
affinity for and inhibition of H3 receptor [1]: displayed both affinity for, and inhibition of

COc1ccc(C/C(=N\O)C(=O)NCCc2c[nH]cn2)cc1Br [compound 2, verogamine]
affinity for and inhibition of H3 receptor [1]: displayed both affinity for, and inhibition of

C[C@H]1[C@H]2CC[C@H]3[C@@H]4CC=C5C[C@@H](N(C)C)CC[C@]5(C)[C@H]4CC[C@]23CN1C [compound 3, conessine]
affinity for and inhibition of H3 receptor [1]: displayed both affinity for, and inhibition of

CN(C)CCCOc1ccc(CCNC(=O)c2cc(Br)c[nH]2)cc1Br [compound 4, dispyrin]
affinity for and inhibition of H3 receptor [1]: displayed both affinity for, and inhibition of

N=C(N)NCCCC1NCCc2c1[nH]c1ccccc21 (stereo not drawn) [compound 5, trypargine]
toxicity [2]: highly toxic

N=C(N)NCCC[C@H]1NCCc2c1[nH]c1cc(Br)ccc21 [compound 7, (+)-7-Bromotrypargine]
SERT activity (SERT): devoid of SERT activity
SERT activity (SERT; listed as (+)-7-bromotrypargine): without inhibiting SERT
% Inhibition (@10 μM) ([3]; 10 μM, radioligand binding): 82%
Ki ([3]; binding): 1900 nM
IC50 [4]: 1900 nM
pharmacological profile in panel of 68 targets [5]: significant percent inhibition at only three targets
IC50 [6]: 3800 nM
cytotoxicity: non-toxic up to [7]: > 20 µM
% Inhibition (@10 μM) (histamine H3 [8]; 10 μM, radioligand binding): 74%
Ki (histamine H3 [8]; binding): 1800 nM
% Inhibition (@10 μM) ([9]; 10 μM, radioligand binding): 81%
Ki ([9]; binding): 3000 nM
antimalarial activity [10]: found to possess antimalarial activity
effect on HCT116 cell viability (HCT116 cells): no affect on HCT116 cell viability
IC50 (histamine H3 [11]): 3600 nM

NCCC[C@H]1NCCc2c1[nH]c1cc(Br)ccc21 [compound 21, (R)-3-(7-bromo-2,3,4,9-tetrahydro-1H-pyrido[3,4-b]indol-1-yl)propan-1-amine]
activity on cell viability (SW620 cells [12]): significant activity on cell viability
activity on cell viability (H520 cells [13]): significant activity on cell viability
IC50 (HCT116 cells; Homo sapiens, HCT-116, 48 h): 3000 nM
effect on HCT116 cell viability (HCT116 cells): completely killing the cells
cytotoxicity in multiple cell lines (HCT116 cells; multiple non-transformed and colon cancer cell lines): extremely cytotoxic
inhibition of proliferation (BrdU) (H520 cells [14]): dramatic affects inhibiting proliferation
inhibition of proliferation (BrdU) (SW620 cells [15]): dramatic affects inhibiting proliferation
